These results are taken from patent US20220332695A1, “UREA DERIVATIVES AS CB1 ALLOSTERIC MODULATORS” (RTI INTERNATIONAL, priority 2019, published 2022).

Where two headings read alike, the source gives them in different places. Bounds are passed on as bounds.

Assay [1] deals with T1, hCB1R (Homo sapiens, UniProt P21554). As to the kind of experiment: Calcium mobilization assay, antagonist mode against CP55,940. On the set-up: expressed in transfected cells; host or cells: CHO-RD-HGA16 cells (parental line from Molecular Devices). The format is cell-based.
T1 sequence (P21554 whole entry): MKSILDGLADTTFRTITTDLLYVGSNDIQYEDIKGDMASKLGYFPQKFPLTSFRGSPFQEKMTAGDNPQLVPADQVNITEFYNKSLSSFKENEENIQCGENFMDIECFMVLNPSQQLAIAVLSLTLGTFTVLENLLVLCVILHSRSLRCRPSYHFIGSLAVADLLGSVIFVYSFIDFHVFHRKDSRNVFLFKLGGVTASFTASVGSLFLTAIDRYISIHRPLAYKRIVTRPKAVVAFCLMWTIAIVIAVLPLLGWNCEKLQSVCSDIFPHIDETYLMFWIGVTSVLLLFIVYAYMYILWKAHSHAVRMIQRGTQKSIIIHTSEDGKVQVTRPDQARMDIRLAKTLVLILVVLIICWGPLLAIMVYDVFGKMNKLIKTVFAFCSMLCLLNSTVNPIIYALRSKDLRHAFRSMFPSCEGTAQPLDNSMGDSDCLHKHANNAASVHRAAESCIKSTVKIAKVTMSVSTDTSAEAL
Procedure: Calcium Mobilization Assay: CHO-RD-HGA16 cells (Molecular Devices, San Jose, Calif., United States of America) stably expressing the human CB1 receptor were plated into 96-well black-walled assay plates at 25,000 cells/well in 100 pL of Ham's F12 (supplemented with 10% fetal bovine serum, 100 units of penicillin/streptomycin, and 100 µg/mL Normocin) and incubated overnight at 37° C., 5% CO2. Calcium 5 dye (Molecular Devices, San Jose, Calif., United States of America) was reconstituted according to the manufacturer's instructions. The reconstituted dye was diluted 1:40 in prewarmed (37° C.) assay buffer (1x HBSS, 20 mM HEPES, 2.5 mM probenecid, pH 7.4 at 37° C.). Growth medium was removed, and the cells were gently washed with 100 pL of prewarmed (37° C.) assay buffer. The cells were incubated for 45 min at 37° C., 5% CO2 in 200 pL of the diluted Calcium 5 dye solution. […] Serial dilutions of the test compounds were prepared at 10x the desired final concentration in 2.25% BSA/4.5% DMSO/4.5% EtOH/assay buffer. After the dye loading incubation period, the cells were pretreated with 25 pL of the test compound serial dilutions and incubated for 15 min at 37° C. After the pretreatment incubation period, the plate was read with a FLIPR Tetra (Molecular Devices, San Jose, Calif., United States of America). Calcium-mediated changes in fluorescence were monitored every 1 s over a 90 s time period, with the Tetra adding 25 pL of the CP55,940 EC80 concentration at the 10s time point (excitation/emission: 485/525 nm). Relative fluorescence units (RFU) were plotted against the log of compound concentrations. For agonist screens, the above procedure was followed except that cells were pretreated with 2.25% BSA/4.5% DMSO/4.5% EtOH/assay buffer and the Tetra added single concentration dilutions of the test compounds prepared at 10x the desired final concentration in 0.25% BSA/0.5% DMSO/0.5% EtOH/assay buffer. Test compound RFUs were compared to the CP55,940 Emax RFUs to generate % Emax values.
Data Analysis: For calcium mobilization experiments, data were fit to a three-parameter logistic curve to generate IC50 values (GraphPad Prism 6.0, Graphpad Software, San Diego, Calif., United States of America).
A further assay concerns the target T2, mouse CB1R (Mus musculus, UniProt P47746).
T2 construct: membranes (10 μg protein) from either ICR mouse cerebellum mice; from tissue; host or cells: cerebellum membranes of ICR mice
Nature of the assay: [35S]GTPγS binding assay in mouse cerebellum membranes. The format is biochemical.

In assay [2] the target is T1, hCB1R. As to the kind of experiment: [35S]GTPγS binding assay in HEK cells stably expressing human CB1R. The format is biochemical. To be noted: [CP] = 100 nM, mean (95% confidence interval), read-out: hCB1R [35S]GTPγS binding assay IC50. Set-up: expressed in transfected cells; host or cells: HEK (HEK293) cells, membranes.
Procedure: (§1) [^35S]GTPγS Binding Assay: For receptor signaling, membranes (10 μg protein) from either ICR mouse cerebellum mice (6-8 weeks old; Enviga
(§2) Non-specific binding was determined by adding 30 μM unlabeled GTPyS. Concentration response curves for allosteric modulators were conducted in the presence of CP55,940 (100 nM or 1 μM) to calculate 1050 values.
(§3) For [^35S]GTPyS experiments, data were normalized to maximal CP55,940 (100 nM) stimulation in the absence of test compound (i.e., vehicle=100%).
The mark [3] stands for this setting: CHO cells expressing human CB1R, against CP55,940 (100 nM), mean ± SEM, read-out: hCB1R Calcium assay IC50.
The mark [4] stands for this setting: Tables 4-6, CP55,940 concentration not stated, mean (95% confidence interval), read-out: mCB1R [35S]GTPγS binding assay IC50.

T2 sequence (P47746 whole entry): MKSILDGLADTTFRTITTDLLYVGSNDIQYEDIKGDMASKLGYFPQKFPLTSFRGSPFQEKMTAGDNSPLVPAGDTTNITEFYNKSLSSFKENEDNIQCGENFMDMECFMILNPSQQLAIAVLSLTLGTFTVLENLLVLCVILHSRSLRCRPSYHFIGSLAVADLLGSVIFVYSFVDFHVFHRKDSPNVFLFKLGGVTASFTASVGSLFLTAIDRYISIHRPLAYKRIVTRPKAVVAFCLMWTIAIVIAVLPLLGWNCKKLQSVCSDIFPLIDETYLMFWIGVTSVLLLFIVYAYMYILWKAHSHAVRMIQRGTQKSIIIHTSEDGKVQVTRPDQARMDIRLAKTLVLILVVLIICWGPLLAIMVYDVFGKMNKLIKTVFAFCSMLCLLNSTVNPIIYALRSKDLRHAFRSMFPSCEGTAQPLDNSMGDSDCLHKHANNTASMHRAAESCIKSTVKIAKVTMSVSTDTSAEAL
Procedure for mouse CB1R: as §1, §2, §3
Select compounds were evaluated in the CP55,940-induced [^35S]GTPyS binding assays using mouse cerebellum membrane at two CP55,940 concentrations, 100 nM and 1μM.

For “3-(4-Chlorophenyl)-1-[2-(3-methoxyphenyl)ethyl]urea [Compound 55]”, the values for the half-maximal inhibitory concentration (IC50) on hCB1R [1] (setting [3]) and on mouse CB1R (setting [4]) were 228 ± 45 nM and 3720 nM, respectively.

`O=C(Nc1ccc(Cl)cc1)N[C@@H]1C[C@H]1c1ccccc1` (racemic) [Compound 15, trans-1-(4-Chlorophenyl)-3-(2-phenylcyclopropyl)urea]: the values for the 50% inhibitory concentration (IC50) at hCB1R [1] (setting [3]) and on hCB1R [2] were 1220 ± 188 nM and more than 10000 nM, respectively.

For `O=C(Nc1ccc(Cl)cc1)N[C@@H]1C[C@@H]1c1ccccc1` (relative stereo) [Compound 16, cis-1-(4-Chlorophenyl)-3-(2-phenylcyclopropyl)urea], the IC50 at hCB1R [1] (setting [3]) and on hCB1R [2] was more than 10000 nM throughout.

Take `O=C(NC[C@@H]1C[C@H]1c1ccccc1)Nc1ccc(Cl)cc1` (relative stereo) [Compound 43, trans-1-(4-Chlorophenyl)-3-[(2-phenylcyclopropyl)methyl]urea]: the IC50 at hCB1R [1] (setting [3]) was 2610 ± 548 nM.

Regarding `COc1ccc(-c2cccc(N3CCCC3)n2)cc1NC(=O)Nc1ccc(Cl)cc1` [Compound 6, 3-(4-Chlorophenyl)-1-{2-methoxy-5-[6-(pyrrolidin-1-yl)pyridin-2-yl]phenyl}urea], the results for the IC50 on hCB1R [1] (setting [3]) and at hCB1R [2] were 1270 nM and more than 10000 nM, respectively.

Consider `O=C(Nc1ccc(Cl)cc1)Nc1csc(-c2ccccc2)c1` [Compound 13, 1-(4-Chlorophenyl)-3-(5-phenylthiophen-3-yl)urea], for which the values for the IC50 on hCB1R [1] (setting [3]) and on hCB1R [2] were 60 ± 8 nM and 888 nM, respectively.

On to `O=C(NCCCc1ccccc1)Nc1ccc(Cl)cc1` [Compound 37, 3-(4-Chlorophenyl)-1-(3-phenylpropyl)urea], for which the IC50 at hCB1R [1] (setting [3]) is 3700 ± 481 nM.

With `O=C(NCC(F)(F)c1ccccc1)Nc1ccc(Cl)cc1` [Compound 39, 3-(4-Chlorophenyl)-1-(2,2-difluoro-2-phenylethyl)urea], the IC50 on hCB1R [1] (setting [3]) was determined as 1580 ± 328 nM.

As to `O=C(NCC1(c2ccccc2)CC1)Nc1ccc(Cl)cc1` [Compound 41, 1-(4-Chlorophenyl)-3-[(1-phenylcyclopropyl)methyl]urea], at hCB1R [1] (setting [3]), the 50% inhibitory concentration (IC50) was found to be 5160 ± 1150 nM.

`O=C(NCCc1ccccc1)Nc1ccc(Cl)cc1` [Compound 44, 3-(4-Chlorophenyl)-1-(2-phenylethyl)urea]: the 50% inhibitory concentration (IC50) on hCB1R [1] turned out to be 193 ± 35 nM.

For `CC(C)(C)c1ccc(CCNC(=O)Nc2ccc(Cl)cc2)cc1` [Compound 45, 1-[2-(4-tert-Butylphenyl)ethyl]-3-(4-chlorophenyl)urea], on hCB1R [1], the IC50 worked out at 573 ± 105 nM.

Take `O=C(NCCc1ccc(-c2ccccc2)cc1)Nc1ccc(Cl)cc1` [Compound 46, 3-(4-Chlorophenyl)-1-[2-(4-phenylphenyl)ethyl]urea]: the IC50 at hCB1R [1] stood at 897 ± 167 nM.

Take `O=C(NCCc1ccc([N+](=O)[O-])cc1)Nc1ccc(Cl)cc1` [Compound 48, 3-(4-Chlorophenyl)-1-[2-(4-nitrophenyl)ethyl]urea]: the half-inhibitory concentration (IC50) was 87 ± 12 nM on hCB1R [1] and 780 nM on mouse CB1R (setting [4]).

As to `COc1cc(CCNC(=O)Nc2ccc(Cl)cc2)ccc1O` [Compound 49, 3-(4-Chlorophenyl)-1-[2-(4-hydroxy-3-methoxyphenyl)ethyl]urea], the IC50 at hCB1R [1] is more than 10000 nM.

`CN(C)c1cccc(CCNC(=O)Nc2ccc(Cl)cc2)c1` [Compound 50, 3-(4-Chlorophenyl)-1-{2-[3-(dimethylamino)phenyl]ethyl}urea]: the half-maximal inhibitory concentration (IC50) on hCB1R [1] was 1680 ± 284 nM; on mouse CB1R it was 592 nM.

As to `CN(C)c1ccc(CCNC(=O)Nc2ccc(Cl)cc2)cc1` [Compound 51, 3-(4-Chlorophenyl)-1-{2-[4-(dimethylamino)phenyl]ethyl}urea], the IC50 on hCB1R [1] turned out to be 323 ± 88 nM; on mouse CB1R, 1590 nM.

On to `CS(=O)(=O)c1ccc(CCNC(=O)Nc2ccc(Cl)cc2)cc1` [Compound 52, 3-(4-Chlorophenyl)-1-[2-(4-methanesulfonylphenyl)ethyl]urea], for which, on hCB1R [1], the IC50 was more than 10000 nM.

For the compound `COc1ccccc1CCNC(=O)Nc1ccc(Cl)cc1` [Compound 53, 3-(4-Chlorophenyl)-1-[2-(2-methoxyphenyl)ethyl]urea], the IC50 on hCB1R [1] was 1620 ± 248 nM.

In the case of `COc1cccc(CCNC(=O)Nc2ccc(Cl)cc2)c1` [Compound 54, 3-(4-Chlorophenyl)-1-[2-(3-methoxyphenyl)ethyl]urea], the IC50 at hCB1R [1] amounted to 485 ± 93 nM.

Take `COc1ccc(CCNC(=O)Nc2ccc(Cl)cc2)cc1OC` [Compound 56, 3-(4-Chlorophenyl)-1-[2-(3,4-dimethoxyphenyl)ethyl]urea]: the IC50 on hCB1R [1] came out at 1860 ± 319 nM.

`O=C(NCCc1ccc(O)cc1)Nc1ccc(Cl)cc1` [Compound 58, 3-(4-Chlorophenyl)1-[2-(4-hydroxyphenyl)ethyl]urea]: at hCB1R [1], the IC50 was more than 10000 nM.

Consider `Cc1ccc(CCNC(=O)Nc2ccc(Cl)cc2)cc1` [Compound 59, 3-(4-Chlorophenyl)1-[2-(4-methylphenyl)ethyl]urea], for which the half-inhibitory concentration (IC50) at hCB1R [1] is 137 ± 21 nM.

As for `Cc1cccc(CCNC(=O)Nc2ccc(Cl)cc2)c1` [Compound 60, 3-(4-Chlorophenyl)1-[2-(3-methylphenyl)ethyl]urea], the concentration for half-maximal inhibition (IC50) came out at 45 ± 9 nM at hCB1R [1] and 4180 nM at mouse CB1R (setting [4]).

Take `O=C(NCCc1ccccc1F)Nc1ccc(Cl)cc1` [Compound 61, 3-(4-Chlorophenyl)1-[2-(2-fluorophenyl)ethyl]urea]: the IC50 on hCB1R [1] was 174 ± 27 nM.

For `O=C(NCCc1cccc(F)c1)Nc1ccc(Cl)cc1` [Compound 62, 3-(4-Chlorophenyl)-1-[2-(3-fluorophenyl)ethyl]urea], the results for the IC50 on hCB1R [1] and on mouse CB1R (setting [4]) were 53 ± 9 nM and 1520 nM, respectively.

On to `O=C(NCCc1ccc(F)cc1)Nc1ccc(Cl)cc1` [Compound 63, 3-(4-Chlorophenyl)1-[2-(4-fluorophenyl)ethyl]urea], for which the 50% inhibitory concentration (IC50) at hCB1R [1] turned out to be 108 ± 19 nM.

As for `O=C(NCCc1ccc(F)c(F)c1)Nc1ccc(Cl)cc1` [Compound 64, 3-(4-Chlorophenyl)-1-[2-(3,4-difluorophenyl)ethyl]urea], the IC50 at hCB1R [1] worked out at 47 ± 5 nM.

Turning to `O=C(NCCc1c(F)cc(F)cc1F)Nc1ccc(Cl)cc1` [Compound 65, 3-(4-Chlorophenyl)-1-[2-(2,4,6-trifluorophenyl)ethyl]urea], the IC50 at hCB1R [1] worked out at 81 ± 9 nM.

Regarding `O=C(NCCc1c(F)c(F)c(F)c(F)c1F)Nc1ccc(Cl)cc1` [Compound 66, 3-(4-Chlorophenyl)1-[2-(2,3,4,5,6-pentafluorophenyl)ethyl]urea], on hCB1R [1], the 50% inhibitory concentration (IC50) came out at 34 ± 7 nM.

On to `O=C(NCCc1ccccc1Cl)Nc1ccc(Cl)cc1` [Compound 67, 3-(4-Chlorophenyl)1-[2-(2-chlorophenyl)ethyl]urea], for which, on hCB1R [1], the IC50 worked out at 237 ± 35 nM.

Take `O=C(NCCc1ccc(Cl)cc1Cl)Nc1ccc(Cl)cc1` [Compound 69, 3-(4-Chlorophenyl)1-[2-(2,4-dichlorophenyl)ethyl]urea]: the concentration for half-maximal inhibition (IC50) on hCB1R [1] came to 174 ± 34 nM.

As for `O=C(NCCc1c(F)cccc1Cl)Nc1ccc(Cl)cc1` [Compound 70, 3-(4-Chlorophenyl)1-[2-(2-chloro-6-fluorophenyl)ethyl]urea], the IC50 on hCB1R [1] came to 408 ± 66 nM.

Consider `O=C(NCCc1ccc(Br)cc1)Nc1ccc(Cl)cc1` [Compound 71, 3-(4-Chlorophenyl)1-[2-(4-bromophenyl)ethyl]urea], for which, at hCB1R [1], the IC50 is 151 ± 20 nM.

Consider `N#Cc1ccc(CCNC(=O)Nc2ccc(Cl)cc2)cc1` [Compound 72, 3-(4-Chlorophenyl)1-[2-(4-cyanophenyl)ethyl]urea], for which the IC50 at hCB1R [1] was 443 ± 53 nM.

As to `O=C(NCCc1ccccc1C(F)(F)F)Nc1ccc(Cl)cc1` [Compound 73, 3-(4-Chlorophenyl)-1-{2-[2-(trifluoromethyl)phenyl]ethyl}urea], on hCB1R [1], the IC50 was determined as 143 ± 34 nM.

Take `O=C(NCCc1cccc(C(F)(F)F)c1)Nc1ccc(Cl)cc1` [Compound 74, 3-(4-Chlorophenyl)-1-{2-[3-(trifluoromethyl)phenyl]ethyl}urea]: the 50% inhibitory concentration (IC50) amounted to 32 ± 7 nM at hCB1R [1] and 766 nM at mouse CB1R (setting [4]).

As for `O=C(NCCc1ccc(C(F)(F)F)cc1)Nc1ccc(Cl)cc1` [Compound 75, 3-(4-Chlorophenyl)-1-{2-[4-(trifluoromethyl)phenyl]ethyl}urea], on hCB1R [1], the IC50 was determined as 194 ± 38 nM.

Consider `O=C(NCCc1ccncc1)Nc1ccc(Cl)cc1` [Compound 76, 3-(4-Chlorophenyl)-1-[2-(pyridin-4-yl)ethyl]urea], for which the IC50 on hCB1R [1] (setting [3]) was more than 10000 nM.

`O=C(NCCc1cccnc1)Nc1ccc(Cl)cc1` [Compound 77, 3-(4-Chlorophenyl)-1-[2-(pyridin-3-yl)ethyl]urea]: the IC50 at hCB1R [1] (setting [3]) is more than 10000 nM.

For the compound `O=C(NCCc1ccccn1)Nc1ccc(Cl)cc1` [Compound 78, 3-(4-Chlorophenyl)-1-[2-(pyridin-2-yl)ethyl]urea], at hCB1R [1] (setting [3]), the IC50 is 3630 ± 687 nM.

Regarding `Cc1ccc(CCNC(=O)Nc2ccc(Cl)cc2)o1` [Compound 79, 1-(4-Chlorophenyl)-3-[2-(5-methylfuran-2-yl)ethyl]urea], the figures for the concentration for half-maximal inhibition (IC50) at hCB1R [1] (setting [3]) and at mouse CB1R (setting [4]) were 255 ± 40 nM and 2780 nM, respectively.

Take `CN1CCN(CCNC(=O)Nc2ccc(Cl)cc2)CC1` [Compound 80, 3-(4-Chlorophenyl)-1-[2-(4-methylpiperazin-1-yl)ethyl]urea]: at hCB1R [1] (setting [3]), the half-maximal inhibitory concentration (IC50) is more than 10000 nM.

As for `O=C(NCCN1CCCCC1)Nc1ccc(Cl)cc1` [Compound 81, 3-(4-Chlorophenyl)-1-[2-(piperidin-1-yl)ethyl]urea], the IC50 on hCB1R [1] (setting [3]) is more than 10000 nM.

Turning to `O=C(NCCN1CCOCC1)Nc1ccc(Cl)cc1` [Compound 82, 3-(4-Chlorophenyl)-1-[2-(morpholin-4-yl)ethyl]urea], the concentration for half-maximal inhibition (IC50) at hCB1R [1] (setting [3]) was more than 10000 nM.

For `O=C(NCCN1CCCC1)Nc1ccc(Cl)cc1` [Compound 83, 1-(4-Chlorophenyl)-3-[2-(pyrrolidin-1-yl)ethyl]urea], the IC50 on hCB1R [1] (setting [3]) was more than 10000 nM.

Take `CC(=O)NCCNC(=O)Nc1ccc(Cl)cc1` [Compound 84, N-(2-{[(4-Chlorophenyl)carbamoyl]amino}ethyl)acetamide]: on hCB1R [1] (setting [3]), the IC50 came to 1830 ± 362 nM.
